pIC50: −log10 of the molar value. Values after ≈ are worked out from the molar mass of the structure shown. Like-named read-outs stand apart in the source and are kept apart here.
Key:
[1] = system: Enterococcus faecium ATCC 51559 (VRE resistant); test: In vitro antibacterial activity (CLSI dilution MIC); assay type: cell-based
[2] = system: Mycobacterium tuberculosis H37Rv strain; test: Anti-tubercular alamar blue microplate MIC assay; assay type: cell-based; conditions: 168 h, 7 days, read-out: anti-mycobacterial activity (MIC)
[3] = system: Bacillus subtilis MTCC 441; test: In vitro antibacterial activity (CLSI dilution MIC); assay type: cell-based; conditions: MTCC441
[4] = system: Enterococcus faecium ATCC 35667; test: as above; assay type: cell-based; conditions: ATCC35667
[5] = system: Escherichia coli MTCC 443; test: as above; assay type: cell-based; conditions: MTCC443
DNA gyrase from E. coli = target: T1, DNA gyrase from E. coli (Escherichia coli, UniProt P0AES4+P0AES6); test: Inspiralis E. coli DNA gyrase inhibition assay; assay type: biochemical
T1 construct: purchased Inspiralis
Protocol: Inhibitory potencies were investigated utilizing the Inspiralis assay on streptavidin-coated 96-well microtiter plates. First, the plates were rehydrated with buffer (20 mM Tris-HCl with pH 7.6, 0.01% w/v BSA, 0.05% v/v Tween 20, 137 mM NaCl) and the biotinylated oligonucleotide was then immobilized. After washing off the unbound oligonucleotide, the enzyme test was performed. The reaction volume of 30 μL in buffer (35 mM Tris×HCl with pH 7.5, 4 mM MgCl2, 24 mM KCl, 2 mM DTT, 1.8 mM spermidine, 1 mM ATP, 6.5% w/v glycerol, 0.1 mg/mL albumin) contained 1.5 U of DNA gyrase from E. coli, 0.75 μg of relaxed pNO1 plasmid, and 3 μL solution of the inhibitor in 10% DMSO and 0.008% Tween 20. Reaction solutions were incubated at 37° C. for 30 min. After that, the TF buffer (50 mM NaOAc with pH 5.0, 50 mM NaCl and 50 mM MgCl2) was added to terminate the enzymatic reaction. After additional incubation for 30 min at rt, during which biotinoligonucleotide-plasmid triplex was formed, the unbound plasmid was washed off using TF buffer and SybrGOLD in T10 buffer (10 mM Tris HCl with pH 8.0 and 1 mM EDTA) was added. The fluorescence was measured with a microplate reader (BioTek Synergy H4, excitation: 485 nm, emission: 535 nm). Initial screening was done at 100 or 10 μM concentration of inhibitors. […] GraphPad Prism software was used to calculate the IC50 values. […]

[6] = system: Klebsiella pneumonia MTCC 618; test: In vitro antibacterial activity (CLSI dilution MIC); assay type: cell-based; conditions: Klebsiella pneumoniae, MTCC618
[7] = system: Staphylococcus aureus ATCC BAA-1556 (MERSA resistant); test: as above; assay type: cell-based; conditions: ATCCBAA1556
[8] = system: Staphylococcus epidermidis; test: as above; assay type: cell-based
[9] = system: Staphylococcus aureus ATCC 29213; test: as above; assay type: cell-based; conditions: ATCC29213
[10] = system: Pseudomonas aeruginosa MTCC 741; test: as above; assay type: cell-based; conditions: MTCC741

T1 sequence (P0AES4 whole entry, one chain of several): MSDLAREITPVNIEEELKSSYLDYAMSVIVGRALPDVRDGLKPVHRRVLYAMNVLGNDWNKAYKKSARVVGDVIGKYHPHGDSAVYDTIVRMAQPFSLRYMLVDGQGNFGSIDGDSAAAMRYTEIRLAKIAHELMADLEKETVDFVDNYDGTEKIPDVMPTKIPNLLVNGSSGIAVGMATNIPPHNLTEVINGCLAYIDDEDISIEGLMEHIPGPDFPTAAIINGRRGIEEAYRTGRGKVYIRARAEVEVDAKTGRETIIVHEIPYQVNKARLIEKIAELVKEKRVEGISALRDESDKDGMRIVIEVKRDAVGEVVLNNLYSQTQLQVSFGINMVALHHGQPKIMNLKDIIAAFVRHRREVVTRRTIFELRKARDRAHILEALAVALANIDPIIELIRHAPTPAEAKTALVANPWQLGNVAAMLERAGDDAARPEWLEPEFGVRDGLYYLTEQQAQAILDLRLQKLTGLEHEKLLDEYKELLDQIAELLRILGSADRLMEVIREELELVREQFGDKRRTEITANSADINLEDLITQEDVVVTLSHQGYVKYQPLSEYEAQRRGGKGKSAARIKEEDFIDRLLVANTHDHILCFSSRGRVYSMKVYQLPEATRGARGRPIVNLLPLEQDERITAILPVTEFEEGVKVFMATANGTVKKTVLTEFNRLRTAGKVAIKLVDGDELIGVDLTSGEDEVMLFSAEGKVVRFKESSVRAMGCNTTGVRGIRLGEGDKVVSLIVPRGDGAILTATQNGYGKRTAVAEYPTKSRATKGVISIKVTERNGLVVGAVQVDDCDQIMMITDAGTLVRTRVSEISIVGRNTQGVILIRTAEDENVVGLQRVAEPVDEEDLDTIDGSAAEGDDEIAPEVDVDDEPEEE

Question: How did the MIC [1] turn out when `CC(=O)Nc1ccc2oc3c4ccc(CC(=O)O)cc4oc(=O)c3c2c1` [Compound 5, 2-(8-acetamido-6-oxo-6H-benzofuro[3,2-c]chromen-3-yl)acetic acid] was run?
Answer: 0.5 µg/mL (≈ 1.42 µM)

Question: What about the MIC [2] of the same molecule?
Answer: 1 µg/mL (≈ 2.85 µM)

Question: What about the MIC ([3]; Bacillus subtilis MTCC 441, read-out: MIC) of the same molecule?
Answer: 0.55 µg/mL (≈ 1.57 µM)

Question: And the MIC [4]?
Answer: 0.55 µg/mL (≈ 1.57 µM)

Question: And the MIC [5]?
Answer: 0.75 µg/mL (≈ 2.13 µM)

Question: And the pIC50 (DNA gyrase from E. coli)?
Answer: 7.70

Question: And the MIC ([6]; Klebsiella pneumonia MTCC 618, read-out: MIC)?
Answer: 0.75 µg/mL (≈ 2.13 µM)

Question: And the MIC [7]?
Answer: 1 µg/mL (≈ 2.85 µM)

Question: What about the MIC [8] of the same molecule?
Answer: 2 µg/mL (≈ 5.69 µM)

Question: And the MIC [9]?
Answer: 1 µg/mL (≈ 2.85 µM)

Question: What about the MIC ([10]; Pseudomonas aeruginosa MTCC 741, read-out: MIC) of the same molecule?
Answer: 0.25 µg/mL (≈ 0.712 µM)

Question: How did the MIC ([3]; Bacillus subtilis) turn out when `CN[C@H](CC(C)C)C(=O)N[C@H]1C(=O)N[C@@H](CC(N)=O)C(=O)N[C@H]2C(=O)N[C@H]3C(=O)N[C@H](C(=O)N[C@H](C(=O)O)c4cc(O)cc(O)c4-c4cc3ccc4O)[C@H](O)c3ccc(c(Cl)c3)Oc3cc2cc(c3O[C@@H]2O[C@H](CO)[C@@H](O)[C@H](O)[C@H]2O[C@H]2C[C@](C)(N)[C@H](O)[C@H](C)O2)Oc2ccc(cc2Cl)[C@H]1O` [Vancomycin, reference compound] was run?
Answer: 0.5 µg/mL (≈ 0.345 µM)

Question: And the MIC [6]?
Answer: > 128 µg/mL

Question: What about the MIC ([10]; Pseudomonas aeruginosa) of the same molecule?
Answer: > 128 µg/mL

Source: patent publication US11976080B1, “Benzofuro[3,2-c]chromen-6-one compounds as antibacterial agents” (King Faisal University, priority 2023, dated 2024)
